From patent US11304957B2, “Substituted quinazolines for inhibiting kinase activity” (NeuPharma, Inc., priority 2013, dated 2022)

Legend:
Assay type in all cases: biochemical
[1] = target: BTK (Homo sapiens (Human), UniProt Q06187); experiment: Z'-LYTE kinase inhibition assay, BTK; conditions: read-out: % inhibition BTK; heading: % inhibition BTK; compound at 0.041 μM
Method: (§1) Inhibitory activities of compounds against BTK, EGFR and EGFR mutants (EGFR L858R, EGFR T790M, EGFR L858R/T790M), FGFR1, FGFR2, JAK2, JAK3 and KDR were measured by Invitrogen using Z′-LYTE® Method as briefly described in the following.
(§2) Test Compounds are screened in 1% DMSO (final) in the well. For 10 point titrations, 3-fold serial dilutions are conducted from the starting concentration. All ATP Solutions are diluted to a 4× working concentration in Kinase Buffer (50 mM HEPES pH 7.5, 0.01% BRIJ-35, 10 mM MgCl2, 1 mM EGTA). Peptide/Kinase Mixtures are diluted to a 2× working concentration in the appropriate Kinase Buffers as described below.
(v) Peptide/Kinase Mixtures for Measurement of BTK:
The 2×BTK/Tyr 01 mixture is prepared in 50 mM HEPES pH 7.5, 0.01% BRIJ-35, 10 mM MgCl2, 1 mM EGTA.
The mixture is then incubated for another 60-minute at room temperature for development reaction. Finally fluorescence is read by plate reader.
(§3) To determine IC50 of a compound against EGFR, EGFR mutant and other kinases, a series of concentrations of the compound were tested for the inhibition. […] The scale utilized in Table 4 is as follows: +++ less than 100 nM, ++ 100-500 nM and + greater than 500 nM.

[2] = target: JAK2 (Homo sapiens (Human), UniProt O60674); experiment: Z'-LYTE kinase inhibition assay, JAK2; conditions: read-out: % inhibition JAK2; heading: % inhibition JAK2; compound at 0.041 μM
Method: as §1, §2
(v) Peptide/Kinase Mixtures for Measurement of JAK2:
The 2×JAK2/Tyr 06 mixture is prepared in 50 mM HEPES pH 7.5, 0.01% BRIJ-35, 10 mM MgCl2, 1 mM EGTA. The final 10 μL Kinase Reaction consists of 0.06-0.81 ng JAK2 and 2 μM Tyr 06 in 50 mM HEPES pH 7.5, 0.01% BRIJ-35, 10 mM MgCl2, 1 mM EGTA. After the 1 hour Kinase Reaction incubation, 5 μL of a 1:64 dilution of Development Reagent A is added.
(§4) Reaction starts by 30-second shaking of mixture consisting of 2.5 μL 4× test compound, 5 μL 2× kinase reaction mixture and 2.5 μL 4×ATP Solution on Bar-coded Corning, low volume NBS, black 384-well plate (Corning Cat. #3676). Then the mixture is incubated for 60-minute at room temperature for the kinase reaction, followed by addition of 5 μL of a 1:1024 dilution of development reagent A and 30-second plate shake. The mixture is then incubated for another 60-minute at room temperature for development reaction. Finally fluorescence is read by plate reader.

[3] = target: FGFR1 (Homo sapiens (Human), UniProt P11362); experiment: Z'-LYTE kinase inhibition assay, FGFR1; conditions: read-out: % inhibition FGFR1; heading: % inhibition FGFR1; compound at 0.041 μM
Method: as §1, §2
(v) Peptide/Kinase Mixtures for Measurement of FGFR1:
The 2×FGFR1/Tyr 04 mixture is prepared in 50 mM HEPES pH 7.5, 0.01% BRIJ-35, 10 mM MgCl2, 4 mM MnCl2, 1 mM EGTA, 2 mM DTT. The final 10 μL Kinase Reaction consists of 0.41-3.5 ng FGFR1 and 2 μM Tyr 04 in 50 mM HEPES pH 7.5, 0.01% BRIJ-35, 10 mM MgCl2, 2 mM MnCl2, 1 mM EGTA, 1 mM DTT. After the 1 hour Kinase Reaction incubation, 5 μL of a 1:64 dilution of Development Reagent B is added.
as §4, §3

[4] = target: EGFR (ErbB1) T790M L858R (Homo sapiens (Human), UniProt P00533, L858R/T790M); experiment: Z'-LYTE kinase inhibition assay, EGFR L858R/T790M; conditions: for inhibition at 0.0137 µM: read-out: % inhibition EGFR L858R/T790M (Compound at 0.0137 μM)
Method: Inhibitory activities of compounds against BTK, EGFR and EGFR mutants (EGFR L858R, EGFR T790M, EGFR L858R/T790M), FGFR1, FGFR2, JAK2, JAK3 and KDR were measured by Invitrogen using Z'-LYTE® Method as briefly described in the following. Test Compounds are screened in 1% DMSO (final) in the well. For 10 point titrations, 3-fold serial dilutions are conducted from the starting concentration. All ATP Solutions are diluted to a 4× working concentration in Kinase Buffer (50 mM HEPES pH 7.5, 0.01% BRIJ-35, 10 mM MgCl2, 1 mM EGTA). Peptide/Kinase Mixtures are diluted to a 2× working concentration in the appropriate Kinase Buffers as described below. (iv) Peptide/Kinase Mixtures for Measurement of EGFR (ErbB1) T790M L858R: The 2×EGFR (ErbB1) […] mixture is prepared in 50 mM HEPES pH 6.5, 0.01% BRIJ-35, 10 mM MgCl2, 1 mM EGTA, 0.02% NaN3. […] After the 1 hour Kinase Reaction incubation, 5 μL of a 1:64 dilution of Development Reagent B is added. Reaction starts by 30-second shaking of mixture consisting of 2.5 μL 4× test compound, 5 μL 2× kinase reaction mixture and 2.5 μL 4×ATP Solution on Bar-coded Corning, low volume NBS, black 384-well plate (Corning Cat. #3676). Then the mixture is incubated for 60-minute at room temperature for the kinase reaction, followed by addition of 5 μL of a 1:1024 dilution of development reagent A and 30-second plate shake. The mixture is then incubated for another 60-minute at room temperature for development reaction. Finally fluorescence is read by plate reader. To determine IC50 of a compound against EGFR, EGFR mutant and other kinases, a series of concentrations of the compound were tested for the inhibition.

Chain of BTK (Q06187 whole entry): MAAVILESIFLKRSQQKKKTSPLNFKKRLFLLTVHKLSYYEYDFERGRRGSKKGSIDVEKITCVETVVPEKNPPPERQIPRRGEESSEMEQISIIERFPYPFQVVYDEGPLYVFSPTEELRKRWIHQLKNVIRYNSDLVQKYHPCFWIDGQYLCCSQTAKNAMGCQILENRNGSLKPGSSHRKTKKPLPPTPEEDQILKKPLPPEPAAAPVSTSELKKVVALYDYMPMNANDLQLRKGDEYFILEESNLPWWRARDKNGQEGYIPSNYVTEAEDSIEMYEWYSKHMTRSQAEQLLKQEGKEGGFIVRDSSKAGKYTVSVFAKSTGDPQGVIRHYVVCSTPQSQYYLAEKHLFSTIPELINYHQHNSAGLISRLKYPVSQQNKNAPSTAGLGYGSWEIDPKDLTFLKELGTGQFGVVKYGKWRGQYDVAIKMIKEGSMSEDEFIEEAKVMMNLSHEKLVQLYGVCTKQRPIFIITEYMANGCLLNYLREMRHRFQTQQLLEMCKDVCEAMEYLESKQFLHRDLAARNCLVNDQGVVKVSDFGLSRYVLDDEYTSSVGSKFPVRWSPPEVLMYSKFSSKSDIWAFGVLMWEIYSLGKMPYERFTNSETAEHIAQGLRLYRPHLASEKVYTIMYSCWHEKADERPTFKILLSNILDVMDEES
Chain of EGFR (ErbB1) T790M L858R (P00533 25-1210 T790M/L858R): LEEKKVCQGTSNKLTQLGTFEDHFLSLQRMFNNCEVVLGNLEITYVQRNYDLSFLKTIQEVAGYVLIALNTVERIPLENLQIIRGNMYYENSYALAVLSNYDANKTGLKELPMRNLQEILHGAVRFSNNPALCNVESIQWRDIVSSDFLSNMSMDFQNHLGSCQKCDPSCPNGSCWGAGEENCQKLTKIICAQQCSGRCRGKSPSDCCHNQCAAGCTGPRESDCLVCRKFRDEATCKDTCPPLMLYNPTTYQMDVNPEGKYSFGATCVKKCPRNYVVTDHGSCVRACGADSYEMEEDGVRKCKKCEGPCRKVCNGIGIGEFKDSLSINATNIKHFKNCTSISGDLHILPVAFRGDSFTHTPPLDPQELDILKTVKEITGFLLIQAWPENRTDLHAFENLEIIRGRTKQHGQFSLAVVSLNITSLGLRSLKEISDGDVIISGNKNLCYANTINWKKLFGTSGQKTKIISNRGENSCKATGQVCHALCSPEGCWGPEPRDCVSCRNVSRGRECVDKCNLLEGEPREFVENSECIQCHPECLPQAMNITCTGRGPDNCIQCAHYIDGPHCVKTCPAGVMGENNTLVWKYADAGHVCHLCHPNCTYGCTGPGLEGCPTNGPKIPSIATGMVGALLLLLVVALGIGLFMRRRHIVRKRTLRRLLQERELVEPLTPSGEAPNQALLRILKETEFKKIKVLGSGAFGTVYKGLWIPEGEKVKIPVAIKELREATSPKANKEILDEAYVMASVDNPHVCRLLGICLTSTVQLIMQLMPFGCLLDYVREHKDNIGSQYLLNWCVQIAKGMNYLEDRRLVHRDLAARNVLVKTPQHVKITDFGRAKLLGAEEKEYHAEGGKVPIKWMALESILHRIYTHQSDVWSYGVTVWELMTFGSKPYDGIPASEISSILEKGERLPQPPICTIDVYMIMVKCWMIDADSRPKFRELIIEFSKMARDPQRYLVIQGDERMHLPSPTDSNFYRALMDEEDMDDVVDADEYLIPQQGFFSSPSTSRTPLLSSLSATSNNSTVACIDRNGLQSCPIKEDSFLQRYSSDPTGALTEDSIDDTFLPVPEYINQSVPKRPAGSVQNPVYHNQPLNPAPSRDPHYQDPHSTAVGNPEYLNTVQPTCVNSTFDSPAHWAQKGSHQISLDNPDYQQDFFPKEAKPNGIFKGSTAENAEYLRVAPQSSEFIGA
Chain of FGFR1 (P11362 22-822): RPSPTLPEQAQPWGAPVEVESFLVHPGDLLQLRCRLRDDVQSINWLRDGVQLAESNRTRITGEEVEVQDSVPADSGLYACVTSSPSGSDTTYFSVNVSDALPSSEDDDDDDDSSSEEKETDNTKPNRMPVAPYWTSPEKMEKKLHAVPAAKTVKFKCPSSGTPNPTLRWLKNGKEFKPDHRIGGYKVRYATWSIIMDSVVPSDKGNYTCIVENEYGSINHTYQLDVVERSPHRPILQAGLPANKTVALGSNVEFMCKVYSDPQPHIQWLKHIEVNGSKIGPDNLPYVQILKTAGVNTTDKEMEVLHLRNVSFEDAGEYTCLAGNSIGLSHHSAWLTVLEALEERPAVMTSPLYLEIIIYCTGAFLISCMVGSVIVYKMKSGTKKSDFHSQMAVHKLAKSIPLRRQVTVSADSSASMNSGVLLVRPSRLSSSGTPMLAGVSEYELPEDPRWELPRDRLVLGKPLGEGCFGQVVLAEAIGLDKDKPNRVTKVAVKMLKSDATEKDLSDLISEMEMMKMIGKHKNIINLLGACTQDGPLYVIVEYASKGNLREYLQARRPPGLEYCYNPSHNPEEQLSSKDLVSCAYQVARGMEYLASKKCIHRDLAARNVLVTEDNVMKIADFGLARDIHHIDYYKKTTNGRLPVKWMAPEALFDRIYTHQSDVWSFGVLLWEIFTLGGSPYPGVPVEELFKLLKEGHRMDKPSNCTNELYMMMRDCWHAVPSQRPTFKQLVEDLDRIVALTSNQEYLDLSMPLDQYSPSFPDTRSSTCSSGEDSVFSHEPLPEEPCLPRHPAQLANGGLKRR
Chain of JAK2 (O60674 whole entry): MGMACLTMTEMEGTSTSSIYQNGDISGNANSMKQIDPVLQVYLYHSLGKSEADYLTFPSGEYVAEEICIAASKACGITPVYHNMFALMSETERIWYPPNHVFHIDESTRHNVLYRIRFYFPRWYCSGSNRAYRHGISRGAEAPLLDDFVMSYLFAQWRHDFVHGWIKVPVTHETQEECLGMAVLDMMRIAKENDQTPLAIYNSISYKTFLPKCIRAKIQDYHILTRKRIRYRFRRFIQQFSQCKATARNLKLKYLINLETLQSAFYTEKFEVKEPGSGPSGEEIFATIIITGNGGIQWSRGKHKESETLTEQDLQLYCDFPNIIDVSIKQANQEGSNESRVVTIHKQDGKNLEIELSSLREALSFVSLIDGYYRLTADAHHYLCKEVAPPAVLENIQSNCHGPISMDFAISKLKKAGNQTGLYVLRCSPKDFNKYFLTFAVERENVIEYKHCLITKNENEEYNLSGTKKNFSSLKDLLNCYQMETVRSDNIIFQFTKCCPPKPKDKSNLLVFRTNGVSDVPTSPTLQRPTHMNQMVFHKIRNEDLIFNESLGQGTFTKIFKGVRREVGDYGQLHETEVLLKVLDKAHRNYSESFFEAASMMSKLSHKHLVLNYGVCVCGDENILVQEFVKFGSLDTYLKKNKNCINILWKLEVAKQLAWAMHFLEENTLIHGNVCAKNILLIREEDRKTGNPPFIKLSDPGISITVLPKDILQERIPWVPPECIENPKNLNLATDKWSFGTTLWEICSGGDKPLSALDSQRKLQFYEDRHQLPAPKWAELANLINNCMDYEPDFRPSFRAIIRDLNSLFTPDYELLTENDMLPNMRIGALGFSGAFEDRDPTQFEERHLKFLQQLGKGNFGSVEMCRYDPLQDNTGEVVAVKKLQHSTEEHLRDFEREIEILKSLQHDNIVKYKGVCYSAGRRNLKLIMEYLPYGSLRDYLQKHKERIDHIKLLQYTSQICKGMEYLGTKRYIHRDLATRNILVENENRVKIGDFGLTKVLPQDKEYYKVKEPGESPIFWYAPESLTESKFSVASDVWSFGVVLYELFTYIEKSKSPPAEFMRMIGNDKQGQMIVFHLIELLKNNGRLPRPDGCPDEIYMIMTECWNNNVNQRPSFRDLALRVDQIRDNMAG

Structure (SMILES)	inhibition at 0.041 µM [1] [%]	inhibition at 0.041 µM [2] [%]	inhibition at 0.041 µM [3] [%]	inhibition at 0.0137 µM [4] [%]	inhibition at 1 µM ([4]; read-out: % inhibition EGFR L858R/T790M (Compound at 1 μM)) [%]
C=CC(=O)Nc1cccc(-c2cccc3cnc(Nc4ccc(N5CCOCC5)cc4)nc23)c1 [Example C001, N-(3-(2-((4-morpholinophenyl)amino)quinazolin-8-yl)phenyl)acrylamide]	> 50	> 50	> 50		
Clc1cccc(-c2cccc3cnc(Nc4ccc(N5CCOCC5)cc4)nc23)c1 [Example C008, 8-(3-chlorophenyl)-N-(4-morpholinophenyl)quinazolin-2-amine]	< 50		< 50		
C=CC(=O)Nc1cccc(-c2cccc3cnc(Nc4ccc(N5CCN(C)CC5)cc4)nc23)c1 [Example C021, N-(3-(2-((4-(4-methylpiperazin-1-yl)phenyl)amino)quinazolin-8-yl)phenyl)acrylamide]		> 50		> 50	
CC(=O)Nc1cccc(-c2cccc3cnc(Nc4ccc(N5CCN(C)CC5)cc4)nc23)c1 [Example C022, N-(3-(2-((4-(4-methylpiperazin-1-yl)phenyl)amino)quinazolin-8-yl)phenyl)acetamide]	> 50	> 50			
Fc1ccc(OCCN2CCOCC2)cc1-c1cccc2cnc(Nc3ccc(N4CCOCC4)cc3)nc12 [Example C023, 8-(2-fluoro-5-(2-morpholinoethoxy)phenyl)-N-(4-morpholinophenyl)quinazolin-2-amine]	< 50	< 50	< 50		
Fc1cccc(-c2cccc3cnc(Nc4ccc(N5CCNCC5)cc4)nc23)c1 [Example C027, 8-(3-fluorophenyl)-N-(4-(piperazin-1-yl)phenyl)quinazolin-2-amine]			> 50		
C=CC(=O)Nc1cccc(-c2cccc3cnc(Nc4ccc(N5CCN(C(C)=O)CC5)cc4)nc23)c1 [Example C032, N-(3-(2-((4-(4-acetylpiperazin-1-yl)phenyl)amino)quinazolin-8-yl)phenyl)acrylamide]	> 50	> 50		< 50	> 50
C=CC(=O)Nc1cccc(-c2c(C)ccc3cnc(Nc4ccc(N5CCOCC5)cc4)nc23)c1 [Example C033, N-(3-(7-methyl-2-((4-morpholinophenyl)amino)quinazolin-8-yl)phenyl)acrylamide]	> 50	< 50			
C=CC(=O)Nc1cccc(-c2cccc3cnc(Nc4ccc(N5CCN(C(C)=O)CC5)nc4)nc23)c1 [Example C036, N-(3-(2-((6-(4-acetylpiperazin-1-yl)pyridin-3-yl)amino)quinazolin-8-yl)phenyl)acrylamide]			< 50		
C=CC(=O)Nc1cncc(-c2cccc3cnc(Nc4ccc(N5CCN(C)CC5)cc4)nc23)c1 [Example C040, N-(5-(2-((4-(4-methylpiperazin-1-yl)phenyl)amino)quinazolin-8-yl)pyridin-3-yl)acrylamide]	> 50	< 50		> 50	
C=CC(=O)Nc1cccc(-c2cccc3cnc(Nc4ccc(N5CCN(C)CC5)cc4F)nc23)c1 [Example C044, N-(3-(2-((2-fluoro-4-(4-methylpiperazin-1-yl)phenyl)amino)quinazolin-8-yl)phenyl)acrylamide]			< 50		
C=CC(=O)Nc1cccc(-c2cccc3cnc(Nc4ccc(N5CCN(C(C)=O)CC5)cc4)nc23)c1Cl [Example C051, N-(3-(2-((4-(4-acetylpiperazin-1-yl)phenyl)amino)quinazolin-8-yl)-2-chlorophenyl)acrylamide]			< 50		
C=CC(=O)Nc1cccc(-c2cccc3cnc(Nc4ccc(N5CCN(CCF)CC5)cc4)nc23)c1 [Example C053, N-(3-(2-((4-(4-(2-fluoroethyl)piperazin-1-yl)phenyl)amino)quinazolin-8-yl)phenyl)acrylamide]	> 50	> 50	> 50		
C=CC(=O)Nc1cccc(-c2cccc3cnc(Nc4ccc(N5CCN(C)CC5)cc4)nc23)c1Cl [Example C054, N-(2-chloro-3-(2-((4-(4-methylpiperazin-1-yl)phenyl)amino)quinazolin-8-yl)phenyl)acrylamide]	> 50	> 50			
C=CC(=O)Nc1cccc(-c2cccc3cnc(Nc4ccc(N5CCN(C)CC5)nc4OC)nc23)c1 [Example C055, N-(3-(2-((2-methoxy-6-(4-methylpiperazin-1-yl)pyridin-3-yl)amino)quinazolin-8-yl)phenyl)acrylamide]	< 50	< 50			
C=CC(=O)Nc1cccc(-c2cccc3cnc(Nc4ccc(N5CCN(CCO)CC5)cc4)nc23)c1 [Example C059, N-(3-(2-((4-(4-(2-hydroxyethyl)piperazin-1-yl)phenyl)amino)quinazolin-8-yl)phenyl)acrylamide]			> 50	> 50	
C=CC(=O)Nc1cccc(-c2cccc3cnc(Nc4ccc(N5CCN(C)CC5)c(OC)c4)nc23)c1 [Example C075, N-(3-(2-((3-methoxy-4-(4-methylpiperazin-1-yl)phenyl)amino)quinazolin-8-yl)phenyl)acrylamide]			> 50		
